Results as given in patent publication US20230092890A1, “1, 3, 4-Oxadiazole derivative compounds as histone deacetylase 6 inhibitor, and the pharmaceutical composition comprising the same” (Chong Kun Dang Pharmaceutical Corp., priority 2019, published 2023).

Columns and labels:
HDAC6 human recombinant = molecular target: T1, HDAC6 human recombinant (Homo sapiens, UniProt Q9UBN7); assay: HDAC enzyme activity inhibition (in vitro), HDAC6 assay; assay type: biochemical; conditions: samples at 0.1, 1, 10, 100 and 1000 nM; 37° C. 60 minutes; fluorescence Ex 390, Em 460; read-out: HDAC6 IC50
T1 construct: purchased Calbiochem 382180
T1 sequence (Q9UBN7 1-1215): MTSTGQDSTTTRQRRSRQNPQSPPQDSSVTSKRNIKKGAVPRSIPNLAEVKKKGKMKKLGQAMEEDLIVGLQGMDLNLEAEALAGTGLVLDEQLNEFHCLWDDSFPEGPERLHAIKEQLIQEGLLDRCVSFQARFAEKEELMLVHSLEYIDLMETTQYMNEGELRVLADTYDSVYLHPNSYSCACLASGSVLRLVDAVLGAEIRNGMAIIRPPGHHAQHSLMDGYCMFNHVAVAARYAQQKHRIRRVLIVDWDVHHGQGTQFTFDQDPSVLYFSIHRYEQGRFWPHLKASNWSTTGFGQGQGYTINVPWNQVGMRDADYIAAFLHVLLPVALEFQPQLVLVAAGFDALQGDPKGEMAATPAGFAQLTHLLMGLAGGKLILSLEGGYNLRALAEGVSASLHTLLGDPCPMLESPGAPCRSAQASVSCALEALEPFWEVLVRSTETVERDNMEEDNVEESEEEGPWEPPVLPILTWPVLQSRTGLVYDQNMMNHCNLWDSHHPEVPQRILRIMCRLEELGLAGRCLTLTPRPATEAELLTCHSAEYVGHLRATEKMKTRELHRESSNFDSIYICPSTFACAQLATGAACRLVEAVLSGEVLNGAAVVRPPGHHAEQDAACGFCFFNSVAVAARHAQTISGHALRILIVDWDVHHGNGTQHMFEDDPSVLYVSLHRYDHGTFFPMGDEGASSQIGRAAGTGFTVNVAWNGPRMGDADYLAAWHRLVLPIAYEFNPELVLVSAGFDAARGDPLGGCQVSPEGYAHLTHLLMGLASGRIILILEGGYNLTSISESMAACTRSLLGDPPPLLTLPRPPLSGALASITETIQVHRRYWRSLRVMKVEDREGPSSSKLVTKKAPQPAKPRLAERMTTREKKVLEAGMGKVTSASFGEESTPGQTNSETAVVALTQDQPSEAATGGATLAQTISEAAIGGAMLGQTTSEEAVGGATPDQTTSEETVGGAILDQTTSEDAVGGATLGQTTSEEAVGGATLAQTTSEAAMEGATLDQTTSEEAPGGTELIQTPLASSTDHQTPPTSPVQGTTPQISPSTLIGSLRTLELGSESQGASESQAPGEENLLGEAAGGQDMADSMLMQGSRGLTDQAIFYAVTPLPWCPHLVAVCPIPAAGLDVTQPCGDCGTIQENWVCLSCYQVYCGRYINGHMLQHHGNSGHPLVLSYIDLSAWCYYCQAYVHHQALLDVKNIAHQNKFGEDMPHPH
In short: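 HDAC6 human recombinant enzyme with fluorimetric substrate; […]. Reaction 60 min at 37° C, then developer 30 min at 37° C; fluorescence read at Ex 390/Em 460.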

HDAC1 = molecular target: T2, HDAC1 (Homo sapiens, UniProt Q13547); assay: HDAC enzyme activity inhibition (in vitro), HDAC1 Fluorimetric Drug Discovery Assay Kit; assay type: biochemical; conditions: samples at 100, 1000 and 10000 nM; 37° C. 60 minutes; fluorescence Ex 390, Em 460; read-out: HDAC1 IC50
T2 construct: purchased Enzolifesciences BML-AK511
T2 sequence (Q13547 whole entry): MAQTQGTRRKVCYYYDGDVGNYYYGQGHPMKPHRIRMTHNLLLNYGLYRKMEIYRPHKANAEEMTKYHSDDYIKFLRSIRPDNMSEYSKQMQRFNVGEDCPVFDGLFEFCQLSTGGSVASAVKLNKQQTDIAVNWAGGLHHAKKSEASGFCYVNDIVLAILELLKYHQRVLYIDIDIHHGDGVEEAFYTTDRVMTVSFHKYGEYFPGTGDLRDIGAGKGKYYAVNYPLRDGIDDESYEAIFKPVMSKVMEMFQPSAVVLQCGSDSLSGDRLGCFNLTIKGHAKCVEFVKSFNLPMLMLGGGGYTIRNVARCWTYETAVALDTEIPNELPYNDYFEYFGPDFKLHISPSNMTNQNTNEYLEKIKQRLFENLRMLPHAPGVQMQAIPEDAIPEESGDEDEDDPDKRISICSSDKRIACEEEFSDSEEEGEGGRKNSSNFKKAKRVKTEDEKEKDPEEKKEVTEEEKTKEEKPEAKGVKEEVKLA
In short: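 Compound incubated with enzyme 60 min at 37° C, then developer 30 min at 37° C; fluorescence read at Ex 390/Em 460. HDAC1 via fluorimetric kit, compounds at 100, 1000 and 10000 nM; HDAC6 human recombinant, compounds at 0.1, 1, 10, 100 and 1000 nM.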

Row | IC50 (HDAC6 human recombinant) | IC50 (HDAC1) | SMILES
1 | 84 nM | > 10000 nM | O=c1n(CCN2CC3(COC3)C2)c2ccccc2n1Cc1ccc(-c2nnc(C(F)F)o2)cn1 [Compound 25, 1-(2-(2-oxa-6-azaspiro[3.3]heptane-6-yl)ethyl)-3-((5-(5-(difluoromethyl)-1,3,4-oxadiazole-2-yl)pyridine-2-yl)methyl)-1,3-dihydro-2H-benzo[d]imidazole-2-one]
2 | 32 nM | > 10000 nM | CN1CCC(n2c(=O)n(Cc3ccc(-c4nnc(C(F)F)o4)cn3)c3ccc(Cl)cc32)CC1 [Compound 97, 5-chloro-1-((5-(5-(difluoromethyl)-1,3,4-oxadiazole-2-yl)pyridine-2-yl)methyl)-3-(1-methylpiperidine-4-yl)-1,3-dihydro-2H-benzo[d]imidazole-2-one]
3 | 31 nM | > 10000 nM | CC(=O)N1CCC(n2c(=O)n(Cc3ccc(-c4nnc(C(F)F)o4)cn3)c3cc(F)ccc32)CC1 [Compound 60, 1-(1-acetylpiperidine-4-yl)-3-((5-(5-(difluoromethyl)-1,3,4-oxadiazole-2-yl)pyridine-2-yl)methyl)-5-fluoro-1,3-dihydro-2H-benzo[d]imidazole-2-one]
4 | 75 nM | > 10000 nM | O=c1oc2cc(-c3cnn(C4CCN(CC(F)(F)F)CC4)c3)c(F)cc2n1Cc1ccc(-c2nnc(C(F)F)o2)cn1 [Compound 363, 3-((5-(5-(difluoromethyl)-1,3,4-oxadiazole-2-yl)pyridine-2-yl)methyl)-5-fluoro-6-(1-(1-(2,2,2-trifluoroethyl)piperidine-4-yl)-1H-pyrazole-4-yl)benzo[d]oxazole-2(3H)-one]
5 | 40 nM | > 10000 nM | CN1CCC(n2c(=O)n(Cc3ccc(-c4nnc(C(F)F)o4)cc3F)c3cc(F)c(F)cc32)CC1 [Compound 93, 1-(4-(5-(difluoromethyl)-1,3,4-oxadiazole-2-yl)-2-fluorobenzyl)-5,6-difluoro-3-(1-methylpiperidine-4-yl)-1,3-dihydro-2H-benzo[d]imidazole-2-one]
6 | 115 nM | > 10000 nM | CN(C)CCn1c(=O)n(Cc2ccc(-c3nnc(C(F)F)o3)cn2)c2ccccc21 [Compound 3, 1-((5-(5-(difluoromethyl)-1,3,4-oxadiazole-2-yl)pyridine-2-yl)methyl)-3-(2-(dimethylamino)ethyl)-1,3-dihydro-2H-benzo[d]imidazole-2-one]
7 | 340 nM | > 10000 nM | CN1CCC(n2c(=O)n(Cc3ccc(-c4nnc(C(F)F)o4)cc3)c3ccccc32)CC1 [Compound 5, 1-(4-(5-(difluoromethyl)-1,3,4-oxadiazole-2-yl)benzyl)-3-(1-methylpiperidine-4-yl)-1,3-dihydro-2H-benzo[d]imidazole-2-one]
8 | 16 nM | > 10000 nM | CN1CCN(c2ncc(-c3cc4c(cc3F)n(Cc3ccc(-c5nnc(C(F)F)o5)cn3)c(=O)n4C)cn2)CC1 [Compound 342, 1-((5-(5-(difluoromethyl)-1,3,4-oxadiazole-2-yl)pyridine-2-yl)methyl)-6-fluoro-3-methy 1-5-(2-(4-methylpiperazine-1-yl)pyrimidine-5-yl)-1,3-dihydro-2H-benzo[d]imidazole-2-one]
9 | 31 nM | > 10000 nM | CC(=O)N1CCC(n2c(=O)n(Cc3ccc(-c4nnc(C(F)F)o4)cn3)c3cc(F)c(F)cc32)CC1 [Compound 173, 1-(1-acetylpiperidine-4-yl)-3-((5-(5-(difluoromethyl)-1,3,4-oxadiazole-2-yl)pyridine-2-yl)methyl)-5,6-difluoro-1,3-dihydro-2H-benzo[d]imidazole-2-one]
10 | 138 nM | > 10000 nM | CN1CCC(n2c(=O)n(Cc3ccc(-c4nnc(C(F)F)o4)cc3F)c3ccc(C4CCN(S(C)(=O)=O)CC4)cc32)CC1 [Compound 158, 1-(4-(5-(difluoromethyl)-1,3,4-oxadiazole-2-yl)-2-fluorobenzyl)-3-(1-methylpiperidine-4-yl)-5-(1-(methylsulfonyl)piperidine-4-yl)-1,3-dihydro-2H-benzo[d]imidazole-2-one]
11 | 16 nM | > 10000 nM | CN1CCC(n2c(=O)n(Cc3ccc(-c4nnc(C(F)F)o4)cn3)c3cc(F)c(-c4ccncc4)cc32)CC1 [Compound 153, 1-((5-(5-(difluoromethyl)-1,3,4-oxadiazole-2-yl)pyridine-2-yl)methyl)-6-fluoro-3-(1-methylpiperidine-4-yl)-5-(pyridine-4-yl)-1,3-dihydro-2H-benzo[d]imidazole-2-one]
12 | 332 nM | > 10000 nM | CN1CC(N2Cc3ccccc3N(Cc3ccc(-c4nnc(C(F)F)o4)cn3)C2=O)C1 [Compound 9, 1-((5-(5-(difluoromethyl)-1,3,4-oxadiazole-2-yl)pyridine-2-yl)methyl)-3-(1-methylazetidine-3-yl)-3,4-dihydroquinazoline-2(1H)-one]
13 | 159 nM | > 10000 nM | CC(=O)N1CCC(c2ccc3c(c2)n(C2CCN(C)CC2)c(=O)n3Cc2ccc(-c3nnc(C(F)F)o3)cc2F)CC1 [Compound 157, 5-(1-acetylpiperidine-4-yl)-1-(4-(5-(difluoromethyl)-1,3,4-oxadiazole-2-yl)-2-fluorobenzyl)-3-(1-methylpiperidine-4-yl)-1,3-dihydro-2H-benzo[d]imidazole-2-one]
14 | 48 nM | > 10000 nM | CN1CCC(n2c(=O)n(Cc3ccc(-c4nnc(C(F)F)o4)cn3)c3cc(F)c(-c4ccc5c(cnn5C(=O)OC(C)(C)C)c4)cc32)CC1 [Compound 255, tert-butyl 5-(1-((5-(5-(difluoromethyl)-1,3,4-oxadiazole-2-yl)pyridine-2-yl)methyl)-6-fluoro-3-(1-methylpiperidine-4-yl)-2-oxo-2,3-dihydro-1H-benzo[d]imidazole-5-yl)-1H-indazole-1-carboxylate]
15 | 271 nM | > 10000 nM | CN1CCC(n2c(=O)n(Cc3ccc(-c4nnc(C(F)F)o4)cn3)c3cc(F)c(-c4cc5ccccc5n4C(=O)OC(C)(C)C)cc32)CC1 [Compound 253, tert-butyl 2-(1-((5-(5-(difluoromethyl)-1,3,4-oxadiazole-2-yl)pyridine-2-yl)methyl)-6-fluoro-3-(1-methylpiperidine-4-yl)-2-oxo-2,3-dihydro-1H-benzo[d]imidazole-5-yl)-1H-indole-1-carboxylate]
16 | 234 nM | > 10000 nM | Cn1c(=O)n(Cc2ccc(-c3nnc(C(F)F)o3)cc2F)c2cc(-c3cccnc3)ccc21 [Compound 110, 3-(4-(5-(difluoromethyl)-1,3,4-oxadiazole-2-yl)-2-fluorobenzyl)-1-methyl-5-(pyridine-3-yl)-1,3-dihydro-2H-benzo[d]imidazole-2-one]
17 | 15 nM | > 10000 nM | Cn1c(=O)n(Cc2ccc(-c3nnc(C(F)F)o3)cn2)c2cc(F)c(Br)cc21 [Compound 147, 5-bromo-1-((5-(5-(difluoromethyl)-1,3,4-oxadiazole-2-yl)pyridine-2-yl)methyl)-6-fluoro-3-methyl-1,3-dihydro-2H-benzo[d]imidazole-2-one]
18 | 71 nM | > 10000 nM | CN1CCC(n2c(=O)n(Cc3ccc(-c4nnc(C(F)F)o4)cc3F)c3ccc(-c4cccc(F)c4)cc32)CC1 [Compound 159, 1-(4-(5-(difluoromethyl)-1,3,4-oxadiazole-2-yl)-2-fluorobenzyl)-5-(3-fluorophenyl)-3-(1-methylpiperidine-4-yl)-1,3-dihydro-2H-benzo[d]imidazole-2-one]
19 | 92 nM | > 10000 nM | O=c1n(Cc2ccc(-c3nnc(C(F)F)o3)cn2)c2ccc(F)cc2n1C1CCN(C2COC2)CC1 [Compound 41, 1-((5-(5-(difluoromethyl)-1,3,4-oxadiazole-2-yl)pyridine-2-yl)methyl)-5-fluoro-3-(1-(oxetan-3-yl)piperidine-4-yl)-1,3-dihydro-2H-benzo[d]imidazole-2-one]
